Laboratory results: patent publication US20150218212A1, “FLUORINATED EPOXYKETONE-BASED TETRAPEPTIDE COMPOUNDS AND USES THEREOF AS PROTEASOME INHIBITORS” (FLUORINOV PHARMA INC., priority 2012, published 2015)

Target: T1, chymotrypsin-like (CT-L) proteasome activity (Homo sapiens, UniProt P20618+P28074)
T1 sequence (P28074 60-263): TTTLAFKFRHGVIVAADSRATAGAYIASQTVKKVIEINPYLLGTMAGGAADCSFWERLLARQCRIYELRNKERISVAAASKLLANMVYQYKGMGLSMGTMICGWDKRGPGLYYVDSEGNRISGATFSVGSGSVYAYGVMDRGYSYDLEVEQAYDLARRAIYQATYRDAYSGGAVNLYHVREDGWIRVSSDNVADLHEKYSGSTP
T1 sequence (P20618 29-241): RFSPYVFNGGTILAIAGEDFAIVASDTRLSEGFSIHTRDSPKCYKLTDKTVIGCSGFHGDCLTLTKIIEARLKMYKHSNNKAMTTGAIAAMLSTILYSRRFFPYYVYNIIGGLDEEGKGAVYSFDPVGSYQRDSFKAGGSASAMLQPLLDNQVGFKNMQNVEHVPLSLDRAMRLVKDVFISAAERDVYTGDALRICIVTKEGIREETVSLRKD
Test: Proteasome enzymatic activity (tumor cell lysates), CT-L, OCI-AML-2
Type: biochemical
Settings: OCI-AML-2, mean ± standard deviation
Method: Human multiple myeloma cell lines 8226, H929, JJN3, KMH11, KMS11, KMS18, LP1, MM1S, OPM2 and U266 were grown in Iscove modified Dulbecco's medium (IMDM). Human leukemia cell lines K562, OCI-AML2 and U937 were cultured in RPMI-1640 medium. Primary peripheral blood mononuclear cells were isolated from multiple myeloma patients by Ficoll density gradient centrifugation and bone marrow aspirates were obtained from multiple myeloma patients at the Princess Margaret Cancer Centre of the University Health Network (UHN; Toronto, ON, Canada). Primary cells were cultured in IMDM. The collection and use of human tissue for this study was approved by the UHN institutional ethics review board. All cell culture media were obtained from the Ontario Cancer Institute Tissue Culture Media Facility (Toronto, ON, Canada) and were supplemented with 10% fetal calf serum, […] (Hyclone, Logan, Utah). All cells were grown in a humidified incubator at 37° C. with 5% CO2.
Cells were harvested by centrifugation at 1,200 rpm at room temperature. Cell pellets were washed with PBS (phosphate buffered saline) and lysed with assay lysis buffer (50 mM HEPES (N-2-hydroxyethylpiperazine-N′-2-ethanesulfonic acid), pH 7.5; 150 mM NaCl; 1% Triton X-100; 2 mM ATP). Cell lysates were incubated on ice for 30 minutes, mixed by vortex every 5 minutes, and then centrifuged at 12,000 g for 10 minutes. The supernatant was transferred to a 96-well plate. For each assay, 10 μg of total protein were incubated for 1 hour at 37° C. with increasing concentrations (1 nM to 10 μM) of test compound diluted in assay buffer (50 mM tris-HCl (tris(hydroxymethyl)aminomethane-HCl), pH 7.5; 150 mM NaCl). DMSO alone was used as a control in every assay plate. After incubation, a specific fluorogenic proteasome substrate was added to each assay reaction at a final concentration of 40 μM in a total volume of 100 μL. N-Succinyl-Leu-Leu-Val-Tyr-7-amino-4-methylcoumarin (Suc-Leu-Leu-Val-Tyr-AMC) was used for measuring chymotrypsin-like (CT-L) activity, t-butoxycarbonyl-Leu-Arg-Arg-7-amino-4-methylcoumarin (Boc-Leu-Arg-Arg-AMC) for trypsin-like (T-L) activity, and benzyloxycarbonyl-L-leucyl-L-leucyl-L-glutamyl-7-amino-4-methylcoumarin (Z-Leu-Leu-Glu-AMC) for caspase-like (C-L) activity. The excitation wavelength was set at 360 nm and the fluorescence emission wavelength of AMC was detected at 460 nm. The fluorescence of free AMC released during the enzymatic reaction was measured with a SpectraMax M5 fluorescent spectrophotometric plate reader (Molecular Devices, Sunnyvale, Calif.). AMC release rate was measured at 37° C. in a kinetic mode, recording every 5 minutes for 30 minutes. Experiments were performed in triplicate and repeated at least twice.
Table 8 summarizes the data of representative compounds of Formula I for cell viability and CT-L proteasome activity with OCI-AML-2 and KMS-11 cell lines.

## CC(C)C[C@H](NC(=O)[C@H](Cc1ccccc1)NC(=O)[C@H](COC(F)F)NC(=O)[C@H](COC(F)F)NC(=O)CN1CCOCC1)C(=O)[C@@]1(C)CO1 [Example 11, (2S)-2-[[(2S)-3-(difluoromethoxy)-2-[[(2S)-3-(difluoromethoxy)-2-[(2-morpholinoacetyl)-amino]propanoyl]amino]propanoyl]amino]-N-[(1S)-3-methyl-1-[(2R)-2-methyloxirane-2-carbonyl]butyl]-3-phenyl-propanamide]
  IC50: 0.0305 ± 0.0039 µM

## CC(C)C[C@H](NC(=O)[C@H](COC(F)F)NC(=O)[C@H](COC(F)F)NC(=O)[C@H](CCc1ccccc1)NC(=O)CN1CCOCC1)C(=O)[C@@]1(C)CO1 [Example 7, (2S)-N-[(1S)-1-(difluoromethoxymethyl)-2-[[(1S)-1-(difluoromethoxymethyl)-2-[[(1S)-3-methyl-1-[(2R)-2-methyloxirane-2-carbo-nyl]butyl]amino]-2-oxo-ethyl]amino]-2-oxo-ethyl]-2-[(2-morpholinoacetyl)amino]-4-phenyl-butanamide]
  IC50: 0.0247 ± 0.0096 µM

## CC(C)C[C@H](NC(=O)[C@H](COC(F)F)NC(=O)CN1CCOCC1)C(=O)N[C@@H](Cc1ccccc1)C(=O)N[C@@H](CC(C)C)C(=O)[C@@]1(C)CO1 [Example 2, (2S)-N-[(1S)-1-benzyl-2-[[(1S)-3-methyl-1-[(2R)-2-methyloxirane-2-carbonyl]butyl]-amino]-2-oxo-ethyl]-2-[[(2S)-3-(difluoromethoxy)-2-[(2-morpholinoacetyl)amino]propanoyl]amino]-4-methyl-pentanamide]
  IC50: 0.0412 ± 0.00319 µM

## CC(C)C[C@H](NC(=O)[C@H](COC(F)F)NC(=O)CN1CCOCC1)C(=O)N[C@@H](Cc1ccccc1)C(=O)N[C@@H](Cc1ccccc1)C(=O)[C@@]1(C)CO1 [Example 3, (2S)-N-[(1S)-1-benzyl-2-[[(1S)-1-benzyl-2-[(2R)-2-methyloxiran-2-yl]-2-oxo-ethyl]amino]-2-oxo-ethyl]-2-[[(2S)-3-(difluoromethoxy)-2-[(2-morpholinoacetyl)-amino]propanoyl]amino]-4-methyl-pentan-amide]
  IC50: 0.03 ± 0.00244 µM

## CC(C)C[C@H](NC(=O)[C@H](COC(F)F)NC(=O)CN1CCOCC1)C(=O)N[C@@H](COC(F)F)C(=O)N[C@@H](Cc1ccccc1)C(=O)[C@@]1(C)CO1 [Example 4, (2S)-N-[(1S)-2-[[(1S)-1-benzyl-2-[(2R)-2-methyloxiran-2-yl]-2-oxo-ethyl]amino]-1-(difluoromethoxymethyl)-2-oxo-ethyl]-2-[[(2S)-3-(difluoromethoxy)-2-[(2-mor-pholinoacetyl)amino]propanoyl]amino]-4 methyl-pentanamide]
  IC50: 0.0209 ± 0.00091 µM

## CC(C)C[C@H](NC(=O)[C@H](COC(F)F)NC(=O)[C@H](COC(F)F)NC(=O)[C@H](COC(F)F)NC(=O)CN1CCOCC1)C(=O)[C@@]1(C)CO1 [Example 17, (2S)-3-(difluoromethoxy)-N-[(1S)-1-(difluoromethoxymethyl)-2-[[(1S)-1-(difluoro-methoxymethyl)-2-[[(1S)-3-methyl-1-[(2R)-2-methyloxirane-2-carbonyl]butyl]amino]-2-oxo-ethyl]amino]-2-oxo-ethyl]-2-[(2-mor-pholinoacetyl)amino]-propanamide]
  IC50: 0.0583 ± 0.00311 µM

## CC(C)C[C@H](NC(=O)[C@H](COC(F)F)NC(=O)CN1CCOCC1)C(=O)N[C@@H](COC(F)F)C(=O)N[C@@H](CC(C)C)C(=O)[C@@]1(C)CO1 [Example 1, (2S)—N-[(1S)-1-(difluoromethoxymethyl)-2-[[(1S)-3-methyl-1-[(2R)-2-methyloxirane-2-carbonyl]butyl]amino]-2-oxo-ethyl]-2-[[(2S)-3-(difluoromethoxy)-2-[(2-morpholinoacetyl)amino]propanoyl]amino]-4-methyl-pentanamide]
  IC50: 0.039 ± 0.00124 µM
